Columns and labels:
Type in all cases: in vivo
[1] = test system: peach aphid (Myzus persicae); test: Myzus test; details: 1000 ppm, cabbage leaves dipped
Experimental: Myzus Test Solvent: 30 parts by weight of dimethylformamide Emulsifier: 1 part by weight of alkylaryl polyglycol ether To produce a suitable preparation of active compound, 1 part by weight of active compound is mixed with the stated amounts of solvent and emulsifier, and the concentrate is diluted with water to the desired concentration. Cabbage leaves (Brassica oleracea) which are heavily infested by the peach aphid (Myzus persicae) are treated by being dipped into a preparation of active compound of the desired concentration. After the desired period of time, the kill in % is determined. 100% means that all of the aphids have been killed: 0% means that none of the aphids has been killed. In this test, for example, the following compounds of the Preparation Examples show good activity.

[2] = test system: Meloidogyne incognita; test: Meloidogyne test (Example G); details: 20 ppm; gall formation on lettuce roots
Experimental: (§1) Meloidogyne Test Solvent: 8 parts by weight of dimethylformamide Emulsifier: 1 part by weight of alkylaryl polyglycol ether To produce a suitable preparation of active compound, 1 part by weight of active compound is mixed with the stated amounts of solvent and emulsifier, and the concentrate is diluted with water to the desired concentration. Containers are filled with sand, solution of active compound. Meloidogyne incognita egg/larvae suspension and lettuce seeds. The lettuce seeds germinate and the plants develop. On the roots, galls are formed. After the desired period of time, the nematicidal action in % is determined using the formation of galls as a measure. 100% means that no galls have been found; 0% means that the number of galls on the treated plants corresponds to that on the untreated control.

[3] = test system: larvae of the mustard beetle (Phaedon cochleariae); test: Phaedon larvae test; details: 1000 ppm, cabbage leaves dipped
Experimental: (§2) Phaedon larvae Test Solvent: 30 parts by weight of dimethylformamide Emulsifier: 1 part by weight of alkylaryl polyglycol ether To produce a suitable preparation of active compound, 1 part by weight of active compound is mixed with the stated amounts of solvent and emulsifier, and the concentrate is diluted with water to the desired concentration. Cabbage leaves (Brassica oleracea) are treated by being dipped into the preparation of active compound of the desired concentration and are populated with larvae of the mustard beetle (Phaedon cochleariae) while the leaves are still moist. After the desired period of time, the kill in % is determined. 100% means that all of the beetle larvae have been killed. 0% means that none of the beetle larvae has been killed. In this test, for example, the following compounds of the Preparation Examples show good activity.

[4] = test system: greenhouse red spider mite (Tetranychus urticae); test: Tetranychus test (OP-resistant/dip treatment); details: bean plants dipped
Experimental: Tetranychus Test (OP-Resistant/Dip Treatment)
Solvent: 30 parts by weight of dimethylformamide
Emulsifier: 1 part by weight of alkylaryl polyglycol ether
(§3) To produce a suitable preparation of active compound, 1 part by weight of active compound is mixed with the stated amounts of solvent and emulsifier, and the concentrate is diluted with water to the desired concentration.
Bean plants (Phaseolus vulgaris) which are heavily infested by all stages of the greenhouse red spider mite (Tetranychus urticae) are dipped into a preparation of active compound of the desired concentration.
After the desired period of time, the effect in % is determined. 100% means that all of the spider mites have been killed, 0% means that none of the spider mites has been killed.
In this test, for example, the following compounds of the Preparation Examples show good activity.

[5] = test system: Meloidogyne incognita; test: Meloidogyne test (Example A); details: 20 ppm active compound, gall formation on lettuce roots
Experimental: as §1, with “30” for “8”, “compound,” for “compound.”

[6] = test system: caterpillars of the army worm (Spodoptera frugiperda); test: Spodoptera frugiperda test; details: 1000 ppm, cabbage leaves dipped
Experimental: as §2, with “Spodoptera frugiperda” for “Phaedon larvae”, “caterpillars” for “larvae”, “army worm (Spodoptera frugiperda)” for “mustard beetle (Phaedon cochleariae)”, “caterpillars” for “beetle larvae”, “killed; 0%.” for “killed. 0%”

[7] = test system: Sphaerotheca fuliginea; test: Sphaerotheca test (cucumber)/protective; details: 750 g/ha, protective, evaluation 7 days after inoculation
Experimental: Sphaerotheca Test (Cucumber)/Protective
Solvent: 48.8 parts by weight of N,N-dimethylformamide
Emulsifier: 1.2 parts by weight of alkylaryl polyglycol ether
as §3
To test for protective activity, young cucumber plants are sprayed with the preparation of active compound at the stated application rate. 1 day after the treatment, the plants are inoculated with a spore suspension of Sphaerotheca fuliginea. The plants are then placed in a greenhouse at 70% relative atmospheric humidity and a temperature of 23° C.
Evaluation is carried out 7 days after the inoculation. 0% means an efficacy which corresponds to that of the control, whereas an efficacy of 100% meais that no infection is observed.

[8] = test system: fruit tree red spider mite (Panonychus ulmi); test: Panonychus test; details: 200 ppm, plum trees sprayed
Experimental: Panonychus Test Solvent: 3 parts by weight of dimethylformamide Emulsifier: 1 part by weight of alkylaryl polyglycol ether To produce a suitable preparation of active compound, 1 part by weight of active compound is mixed with the stated amounts of solvent and emulsifier, and the concentrate is diluted with water to the desired concentration. Plum trees (Prunus domestica), of a height of approximately 30 cm, which are heavily infested by all stages of the fruit tree red spider mite (Panonychus ulmi) are sprayed with a preparation of active compound of the desired concentration. After the desired period of time, the effect in % is determined. 100% means that all of the spider mites have been killed: 0% means that none of the spider mites has been killed.

Cc1cc(C)c(C2=C(O)C(C)(C)C(C)(C)OC2=O)c(C)c1 [Ex. I-a-7]
Kill rate in % after 6d [1]: 90% | Kill rate in % at active compound concentration in ppm [2]: 20 ppm = 100%

Cc1ccc(-c2ccc(Cl)cc2)cc1C1=C(OC(=O)OC(C)C)C(C)(C)C(C)(C)OC1=O [Ex. I-A-c-3]
Kill rate in % after 7d [3]: 90% | Kill rate in % after 7d ([4]; 0.01 ppm): 100%

Cc1cc(C)c(C2=C(OC(=O)OC(C)C)OCC(C)(C)C2=O)c(C)c1 [Ex. I-B-c-1]
Kill rate in % after 14d [5]: 90% | Kill rate in % after 7d ([4]; 100 ppm): 100%

Cc1cc(-c2ccc(Cl)cc2)cc(C)c1C1=C(O)C(C)(C)C(C)(C)OC1=O [Ex. I-a-1]
Kill rate in % after 7d [3]: 100%

Cc1cc(-c2ccc(Cl)cc2)cc(C)c1C1=C(O)C(C)(C)COC1=O [Ex. I-a-13]
Kill rate in % after 7d [3]: 100%

Cc1cc(-c2ccc(Cl)cc2)cc(C)c1C1=C(OC(=O)C(C)C)C(C)(C)C(C)(C)OC1=O [Ex. I-A-b-1]
Kill rate in % after 14d [5]: 100%

Cc1ccc(-c2ccc(Cl)cc2)cc1C1=C(OC(=O)C(C)C)C(C)(C)C(C)(C)OC1=O [Ex. I-A-b-10]
Kill rate in % after 14d [5]: 100% | Kill rate in % after 7d [3]: 100% | Kill rate in % after 7d [6]: 100%

Cc1ccc(-c2ccc(Cl)cc2)cc1C1=C(O)C(C)(C)COC1=O [Ex. I-a-5]
Kill rate in % after 14d [5]: 100% | Kill rate in % after 6d [1]: 95% | Kill rate in % after 7d [3]: 100%

COC1OC(OC(C)=O)=C(c2ccc(Cl)cc2C)C(=O)C1(C)C (centres unmarked) [Ex. I-B-b-13]
Efficacy in % [7]: 70%

Cc1cc(C)c(C2=C(OC(=O)C(C)C)OCC(C)(C)C2=O)c(C)c1 [Ex. I-B-b-17]
Kill rate in % after 14d [5]: 90% | Kill rate in % after 7d ([4]; 100 ppm): 100%

COC1OC(=O)C(c2ccc(Cl)cc2C)=C(OC(C)=O)C1(C)C (centres unmarked) [Ex. I-A-b-3]
Efficacy in % [7]: 80%

Cc1ccc(-c2ccc(Cl)cc2)cc1C1=C(O)C(C)(C)C(C)(C)OC1=O [Ex. I-a-6]
Kill rate in % after 6d [1]: 95% | Kill rate in % after 14d [8]: 100% | Kill rate in % after 7d [3]: 100% | Kill rate in % after 7d [6]: 100% | Kill rate in % after 7d ([4]; 100 ppm): 100%

Cc1cc(-c2ccc(Cl)cc2)cc(C)c1C1=C(OC(=O)C(C)C)C(C)(C)COC1=O [Ex. I-A-b-11]
Kill rate in % after 7d [3]: 100%

Cc1cc(C)c(C2=C(OC(=O)C(C)C)OC(C)(C)C(C)(C)C2=O)c(C)c1 [Ex. I-B-b-16]
Kill rate in % after 7d ([4]; 100 ppm): 100%

Source: US6906007B2, “Phenyl-substituted 5,6-dihydropyrone derivatives for use as pesticides and herbicides” (Bayer CropScience AG, priority 2000, dated 2005)
